Test results reported in ChEMBL document CHEMBL3885861, “Open TG-GATES”.

Species: Rattus norvegicus
Test: Open TG-GATES - Regimen: Single
Format: toxicity, organism-based, Sprague-Dawley
Parameters: regimen Single, gender Male, age 6 weeks
Conditions: in vivo, po, 60 mg/kg, route gavage, dose level High; for APTT / Bas / Eos / Fbg / Hb / Ht / Lym / MCH / MCHC / MCV / Mono / Neu / PT / Plat / RBC / Ret / WBC: tissue Blood; for LIVER: tissue Liver; for A/G / ALP / ALT / AST / BUN / CRE / Ca / Cl / DBIL / GLC / IP / K / LDH / Na / PL / RALB / TBIL / TC / TG / TP / gamma-GTP: tissue Plasma

O=[N+]([O-])c1ccc(O)c([N+](=O)[O-])c1 [2,4-DINITROPHENOL]
TERMINAL_BW (3 h): 203.7 g | APTT (3 h): 17.2 s | Bas (3 h): 0% | Eos (3 h): 0.4% | Fbg (3 h): 232.6 mg/dL | Hb (3 h): 12.5 g/dL | Ht (3 h): 37.7% | Lym (3 h): 79.6% | MCH (3 h): 21.3 pg | MCHC (3 h): 33.4% | MCV (3 h): 63.9 fL | Mono (3 h): 7% | Neu (3 h): 13.2% | PT (3 h): 12.4 s | Plat (3 h): 127.8 x10_4/uL | RBC (3 h): 590 x10_4/ul | Ret (3 h): 8.6% | WBC (3 h): 75.8 x10_2/uL | LIVER (3 h): 8.6 g | A/G (3 h): 2.6 | ALP (3 h): 1665.4 IU/L | ALT (3 h): 39.6 IU/L | AST (3 h): 95.6 IU/L | BUN (3 h): 19 mg/dL | CRE (3 h): 0.5 mg/dL | Ca (3 h): 11.4 mg/dL | Cl (3 h): 103.6 meq/L | DBIL (3 h): 0.014 mg/dL | GLC (3 h): 236.8 mg/dL | IP (3 h): 11.4 mg/dL | K (3 h): 4.5 meq/L | LDH (3 h): 215 IU/L | Na (3 h): 137 meq/L | PL (3 h): 129.4 mg/dL | RALB (3 h): 3.9 g/dL | TBIL (3 h): 0.026 mg/dL | TC (3 h): 77.6 mg/dL | TG (3 h): 56.8 mg/dL | TP (3 h): 5.4 g/dL | gamma-GTP (3 h): 0 IU/L | TERMINAL_BW (6 h): 206.8 g | APTT (6 h): 16.1 s | Bas (6 h): 0% | Eos (6 h): 0.4% | Fbg (6 h): 247.6 mg/dL | Hb (6 h): 12.6 g/dL | Ht (6 h): 38% | Lym (6 h): 70.4% | MCH (6 h): 21.8 pg | MCHC (6 h): 33.3% | MCV (6 h): 65.6 fL | Mono (6 h): 9.4% | Neu (6 h): 19.8% | PT (6 h): 11.7 s | Plat (6 h): 116.6 x10_4/uL | RBC (6 h): 580.4 x10_4/ul | Ret (6 h): 10% | WBC (6 h): 114 x10_2/uL | LIVER (6 h): 8.7 g | A/G (6 h): 2.7 | ALP (6 h): 1501.4 IU/L | ALT (6 h): 36.2 IU/L | AST (6 h): 96.6 IU/L | BUN (6 h): 20.6 mg/dL | CRE (6 h): 0.6 mg/dL | Ca (6 h): 11.4 mg/dL | Cl (6 h): 106.6 meq/L | DBIL (6 h): 0.012 mg/dL | GLC (6 h): 245.4 mg/dL | IP (6 h): 10.2 mg/dL | K (6 h): 4.3 meq/L | LDH (6 h): 245.4 IU/L | Na (6 h): 138.6 meq/L | PL (6 h): 150.4 mg/dL | RALB (6 h): 4 g/dL | TBIL (6 h): 0.026 mg/dL | TC (6 h): 93.4 mg/dL | TG (6 h): 31.4 mg/dL | TP (6 h): 5.5 g/dL | gamma-GTP (6 h): 0 IU/L | TERMINAL_BW (9 h): 192.8 g | APTT (9 h): 16.1 s | Bas (9 h): 0% | Eos (9 h): 0.5% | Fbg (9 h): 244.8 mg/dL | Hb (9 h): 12.6 g/dL | Ht (9 h): 37.6% | Lym (9 h): 74.5% | MCH (9 h): 21.8 pg | MCHC (9 h): 33.5% | MCV (9 h): 65 fL | Mono (9 h): 5.8% | Neu (9 h): 19.2% | PT (9 h): 11.9 s | Plat (9 h): 117.2 x10_4/uL | RBC (9 h): 579.2 x10_4/ul | Ret (9 h): 8.8% | WBC (9 h): 92.8 x10_2/uL | LIVER (9 h): 7.3 g | A/G (9 h): 2.5 | ALP (9 h): 1343 IU/L | ALT (9 h): 32.2 IU/L | AST (9 h): 87.2 IU/L | BUN (9 h): 20 mg/dL | CRE (9 h): 0.5 mg/dL | Ca (9 h): 11.1 mg/dL | Cl (9 h): 108 meq/L | DBIL (9 h): 0.02 mg/dL | GLC (9 h): 247.5 mg/dL | IP (9 h): 9.7 mg/dL | K (9 h): 4.7 meq/L | LDH (9 h): 154.8 IU/L | Na (9 h): 138.2 meq/L | PL (9 h): 146.5 mg/dL | RALB (9 h): 3.8 g/dL | TBIL (9 h): 0.0225 mg/dL | TC (9 h): 88.2 mg/dL | TG (9 h): 56.2 mg/dL | TP (9 h): 5.4 g/dL | gamma-GTP (9 h): 0.5 IU/L | TERMINAL_BW (24 h): 207.1 g | APTT (24 h): 15.7 s | Bas (24 h): 0% | Eos (24 h): 0.8% | Fbg (24 h): 263.6 mg/dL | Hb (24 h): 13.3 g/dL | Ht (24 h): 39.9% | Lym (24 h): 71% | MCH (24 h): 21.6 pg | MCHC (24 h): 33.3% | MCV (24 h): 64.7 fL | Mono (24 h): 8% | Neu (24 h): 20.4% | PT (24 h): 11.7 s | Plat (24 h): 123.2 x10_4/uL | RBC (24 h): 617.2 x10_4/ul | Ret (24 h): 8.5% | WBC (24 h): 120.4 x10_2/uL | LIVER (24 h): 10.7 g | A/G (24 h): 2.4 | ALP (24 h): 1582.4 IU/L | ALT (24 h): 35.6 IU/L | AST (24 h): 73.8 IU/L | BUN (24 h): 19.2 mg/dL | CRE (24 h): 0.4 mg/dL | Ca (24 h): 11.6 mg/dL | Cl (24 h): 105.2 meq/L | DBIL (24 h): 0.018 mg/dL | GLC (24 h): 176.2 mg/dL | IP (24 h): 6.4 mg/dL | K (24 h): 4.6 meq/L | LDH (24 h): 149.2 IU/L | Na (24 h): 140 meq/L | PL (24 h): 173 mg/dL | RALB (24 h): 4 g/dL | TBIL (24 h): 0.018 mg/dL | TC (24 h): 93.4 mg/dL | TG (24 h): 169.6 mg/dL | TP (24 h): 5.7 g/dL | gamma-GTP (24 h): 0.8 IU/L
